The values below come from PubChem BioAssay AID743394 (Broad Institute, 2014).

The source made the active and inactive calls.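 The calls were made as follows: active = 40% activation versus positive control reached by fitted dose-response curve at or below highest valid tested dose; inconclusive = poor fit quality, or flat fit with activation between 30% and 70%; inactive = the rest.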 Some results are limits rather than exact numbers.

For one experiment, the system named is 68-5-11 mouse fibroblast XiGFP reporter, % GFP-positive imaging, 3 d. Briefly: inactive X chromosome reactivation in XiGFP fibroblasts, dose response, imaging, 68-5-11 mouse fibroblasts, GFP, cherry-pick (AID 743394).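 Also: sensitizer 5-aza-dC present in the wells at 0.5 mM final.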
Conditions: not given
Take `CC1=CC(=Cc2sc3ccccc3[n+]2C)C=C(C)O1`: the AC40 was 7.67 µM.

Staying with this experiment, now noted: cells co-treated with 5-aza-dC sensitizer.
As to `O=CNc1ccc2c3c(cccc13)-c1ccccc1-2`, the AC40 is 5.85 µM.
The same measure, in the same setting: with `CCOC(=O)/C=c1\s/c(=C\c2ccc3cc(OC)ccc3c2)c(=O)n1CC(=O)NCc1ccc2c(c1)OCO2` the figure was 7.15 µM; with `Cc1cc2oc3ccc(NCCCn4ccnc4)cc3c(=O)c2cc1C`, 11.3 µM.
On the same count and under the same terms, under `COC1=CC(=O)c2c(ccc3ncnc(N)c23)C1=O` stands 9.69 µM; under `CCOC(=O)Cn1c(=O)c(-c2cc(Br)ccc2N)nc2ccccc21`, 12.5 µM.
`Cc1ccc2cc3c(N)c(C(=O)Nc4c(C)[nH]c(=O)[nH]c4=O)sc3nc2c1`: the AC40 was 13.2 µM.
Regarding `Cc1cccc2cc3c(N)c(C(=O)N4CCc5ccccc54)sc3nc12`, the AC40 is 14.1 µM.
Still for that read-out and setting: under `Cc1ccccc1OCC(O)CNC1CCC(NCC(O)COc2ccccc2C)CC1` (stereo unspecified) stands > 19.5 µM (inactive); under `COc1ccc(Cn2cc3c(-c4ccc(F)cc4)nnc-3c3cc(OC)c(OC)cc32)cc1`, 4.05 µM; under `Nc1c(C(=O)Nc2ccc(S(=O)(=O)N3CCCC3)cc2)sc2nc3cc4c(cc3cc12)CCC4`, 4.29 µM.
Still for that read-out and setting: with `COc1ccc(/C=C/C(=O)c2ccc([N+](=O)[O-])o2)cc1OC` the figure was 14.3 µM.
On the same count and under the same terms, with `Cc1cc(C)c2cc3c(N)c(C(=O)Nc4c(C)[nH]c(=O)[nH]c4=O)sc3nc2c1` the figure was 19.3 µM.
Take `Cc1cccc(-c2cccc3[nH]c4c(c23)CCN2C(=O)[C@H]3[C@H](C)ON(C)[C@H]3C[C@@H]42)c1`: the AC40 was 10.8 µM.
Turning to `CCCCNc1ccc2c3c(cccc13)C(=O)N(CCCC)C2=O`, the AC40 was 0.927 µM.
`CC(C)CCN1CCN(Cc2cc3ccccc3[nH]2)CC1CCO` (stereo unspecified): the AC40 is 16.4 µM.
On the same count and under the same terms, under `CC(NC(=O)/C(C#N)=C/c1ccc([N+](=O)[O-])o1)c1ccccc1` (stereo unspecified) stands 6.75 µM; under `CCC(CO)[n+]1c(C)cc(/C=C2\Sc3ccccc3N2Cc2ccccc2)cc1C` (stereo unspecified), 1.55 µM.
With `CCCN1C(=O)S/C(=C\c2ccc(N3CCOCC3)o2)C1=O`, the AC40 was > 19.5 µM (inactive).
Still for that read-out and setting: under `Cc1ccc(Cl)c2c(N=Nc3ccccc3)c(O)[nH]c12` stands 7.83 µM.
As to `CN(C)CCCN1C(=O)c2cccc3c([N+](=O)[O-])ccc(c23)C1=O`, the AC40 is 6.06 µM.
Consider `O=[N+]([O-])c1ccc(N/N=C/c2ccc[nH]2)cc1`, for which the AC40 is > 19.5 µM (inactive).
The same measure, in the same setting: under `CC(=O)Oc1cccc(N2C(=O)c3cccc4c([N+](=O)[O-])ccc(c34)C2=O)c1` stands 5.28 µM.
Same read-out and setting: under `C[C@H]1CCCCO[C@H](CN(C)S(=O)(=O)c2ccc(Cl)cc2)[C@@H](C)CN([C@@H](C)CO)C(=O)c2cc(NC(=O)Nc3ccccc3)ccc2O1` stands > 19.5 µM (inactive); under `CCN(CC)C1=CC2=CC(=C(C#N)C#N)CCC2CC1` (stereo unspecified), 8.77 µM; under `COc1cc(/C=C/c2ccc3cccc(O)c3n2)c(Br)cc1O`, 14 µM.
On the same count and under the same terms, with `Cc1ccc(C(=O)c2oc3ccccc3c2NC(=O)c2cc(-c3ccccc3O)n[nH]2)cc1` the figure was 12.8 µM; with `N#C/C(=C/c1ccc(-c2ccccc2)o1)c1nc(-c2cccs2)cs1`, 5.05 µM; with `Cc1ccc(S(=O)(=O)N2CC3(O)CN(C(=O)OC(C)C)N(C(=O)OC(C)C)CC3(OC(=O)NCc3ccccc3)C2)cc1` (stereo unspecified), 13.8 µM.
For the compound `CC(=NNc1nc2ccccc2o1)c1cc2ccccc2cn1`, the AC40 was 2.86 µM.
Turning to `O=S(=O)(Nc1cc2nc3ccccc3nc2n1Cc1ccccc1)c1ccc(Cl)cc1`, the AC40 was > 19.5 µM (inactive).
Still for that read-out and setting: under `C=CCN1C(=O)[C@@H]2Cc3c([nH]c4ccccc34)C(c3cc(OC)c(OC)c(OC)c3)N2C1=S` (stereo partly specified) stands > 19.5 µM (inactive); under `Cn1cc(C2=C(c3ccc(Cl)cc3Cl)C(=O)NC2=O)c2ccccc21`, 6.16 µM.
Same read-out and setting: under `COc1cc(N2CCCC2)c(OC)cc1/C=C1/NC(=S)NC1=O` stands > 19.5 µM (inactive).
Same read-out and setting: under `N=c1ccn2c(n1)OC1C(O)C(CO)OC12` (stereo unspecified) stands 19.1 µM.
For `COc1cc2c3nnc(-c4ccc(F)cc4)c-3cn(Cc3ccccc3F)c2cc1OC`, the AC40 was 1.57 µM.
